The source of these data is patent US5506102A (priority 1993, dated 1996).

In assay [1] the test system is human estrogen receptor. The experiment in a line: ER transcriptional activity on MMTV-ERE-LUC, CV-1 cells, ER co-expressed with PR-A. It is filed as cell-based. The procedure:
All values were normalized for transfection efficiency by simultaneous estimation of luciferase and β-galactocidase activities. The relative luciferase activity is calculated by dividing the normalized luciferase value at a given point by that obtained in the absence of transfected receptor or ligand. Data shown represent the mean +/- the average deviation from the mean of triplicate estimations.
Experimental protocols and data calculation are as described in FIG. 11. The experiment detailed above is representative of independent assays (N>3). Data shown represent the mean +/- the average deviation from the mean of triplicate estimations.
Vegeto et al., supra. Cells were plated into 96-well tissue culture plates. The vector DNA was introduced into the CV-1 cells using calcium phosphate coprecipitation as described herein. More specifically, 20 μg of DNA/ml of transfection buffer were used in each transfection. Each transfection mix included 0.5 μg of pRST7hER, 9.5 μg of MMTV-ERE-LUC, 5 μg of pCH110, (which contains the gene for β-galactosidase) as an internal control and 5 μg of PGEM4 DNA as a carrier. Depending on the experiment, 0.1 μg pSVhPR-A or pSVhPR-B and an amount of pSVXV2neo (Dr. Bert O'Malley, Baylor College of Medicine) to bring the total amount of DNA to 20 μg was added. The concentration of pXVhPR-A vector chosen was determined by performing the experiment at several different concentrations of vector, and then using that concentration that was optimal for transcriptional readout. The concentration of pSVhPR-B vector was chosen based upon the amount required to give an identical amount of immunoreactive PR-A and PR-B. After transfections using a Biomek 1000 automated laboratory workstation, the cells were incubated with the precipitate for 6 hours. Cells were washed with PBS and incubated for 40 hours with or without hormones as indicated. Cell extracts were prepared as previously described herein and assayed for luciferase (LUC) and β-galactosidase activities. The Normalized LUC activity was calculated by dividing the raw luciferase (×10^4) units for each point by the β-galactosidase activity [(OD415 nm ×10^5)/time min.] at that point.

Assay [2] concerns the target T1, PR-B (Homo sapiens, UniProt P06401).
T1 sequence (P06401 1-933): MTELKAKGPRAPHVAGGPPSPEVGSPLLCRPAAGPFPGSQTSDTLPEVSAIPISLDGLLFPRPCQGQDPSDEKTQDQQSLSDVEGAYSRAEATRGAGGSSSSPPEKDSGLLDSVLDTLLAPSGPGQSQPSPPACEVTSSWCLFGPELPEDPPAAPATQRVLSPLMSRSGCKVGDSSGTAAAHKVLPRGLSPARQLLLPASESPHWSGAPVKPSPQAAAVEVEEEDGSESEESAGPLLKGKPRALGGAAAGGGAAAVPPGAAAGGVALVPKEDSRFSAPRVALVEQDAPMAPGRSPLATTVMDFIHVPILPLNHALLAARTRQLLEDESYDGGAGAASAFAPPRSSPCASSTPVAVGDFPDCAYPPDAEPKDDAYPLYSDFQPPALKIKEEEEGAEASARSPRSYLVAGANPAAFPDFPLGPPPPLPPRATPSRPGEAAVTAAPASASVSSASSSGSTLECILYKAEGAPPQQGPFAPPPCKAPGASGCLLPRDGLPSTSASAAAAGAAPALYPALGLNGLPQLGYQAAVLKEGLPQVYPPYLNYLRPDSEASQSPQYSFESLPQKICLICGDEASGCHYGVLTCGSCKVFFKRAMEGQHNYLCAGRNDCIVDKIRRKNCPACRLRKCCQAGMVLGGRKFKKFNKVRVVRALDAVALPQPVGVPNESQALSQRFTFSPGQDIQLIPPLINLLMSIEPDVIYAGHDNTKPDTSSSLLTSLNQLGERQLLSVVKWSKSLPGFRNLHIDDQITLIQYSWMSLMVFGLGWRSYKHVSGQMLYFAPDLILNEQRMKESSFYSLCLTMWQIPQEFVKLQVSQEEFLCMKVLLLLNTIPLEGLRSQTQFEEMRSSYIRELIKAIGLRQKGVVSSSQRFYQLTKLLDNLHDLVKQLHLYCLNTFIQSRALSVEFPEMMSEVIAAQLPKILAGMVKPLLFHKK
Briefly: Direct inhibition of PR-B transcriptional activity, CV-1 cells. In kind it is cell-based. Details: expressed in transfected cells; host or cells: CV-1, HepG2 (PRE2 tk-LUC); HeLa, also HepG2 and CV-1 (TAT promoter). Conditions: read-out: IC50 (50% maximal Inhibitory concentration), transcriptional activity of PR-B; in the presence of 10^-8 progesterone.

Consider `CC(=O)[C@H]1CC[C@H]2[C@@H]3CCC4=CC(=O)CC[C@]4(C)[C@H]3CC[C@]12C` [progesterone], for which the “maximal inhibition of ER activation by 17-β-estradiol” value in assay [1] (10 nM progesterone, hPR-A co-expressed, 10^-7 M 17β-estradiol, FIG. 11C) is recorded as 55%.

Regarding `CC#C[C@]1(O)CC[C@H]2[C@@H]3CCC4=CC(=O)CCC4=C3[C@@H](c3ccc(C(C)=O)cc3)C[C@@]21C` [ZK112993], the IC50 in assay [1] (10^-7 M 17-β-estradiol, read-out: half maximal inhibition (IC50) of ER in the presence of hPR-A) was determined as 0.5 nM; in assay [2], 0.6 nM. Also, the “efficacy compared to the pure anti-estrogen ICI-164,384” value in assay [1] (PR-A co-expressed, 100% = 10^-7 M 17-β-estradiol + 10^-6 M ICI-164,384, FIG. 12) was “greater than 80%”.
